# According to patent publication US20250090820A1, “LOCALIZED DRUG DELIVERY TO PREVENT VASCULAR RESTENOSIS” (Ohio State Innovation Foundation, priority 2022, published 2025):
# Experiment: Release of model compounds from sintered electrospun PCL fiber capsules
# Type: physicochemical
# Settings: for ranking of release of model compounds: controlled by molecular weight and available porosity
# From the text: Electrospinning has been used widely for drug delivery due to its versatility and ease of modification of fiber properties. However, total drug loading and release is typically limited by the inherent surface area. Instead a sintering of electrospun fiber to create injectable capsules favoring controlled delivery of low molecular weight compounds was used. As electrospun, the fully resorbable, biocompatible polymer polycaprolactone (PCL) retains its morphology out to 1,042 days of in vitro exposure, illustrating its potential for extended performance. Sintering decreases the pore size by 10- and 28-fold following 56 and 57° C. exposures, respectively. After the 58 and 59° C. exposures, these PCL capsules lose all apparent surface porosity but entrapped pores are observed in the 58° C. cross-section. […] The model drug adsorption on the available surface area (57 versus 56° C.) and entrapped porosity (59 versus 58° C.) could have also attributed to the observed ranking of release rates.
# FIGS. 5A-5H show images of microstructural transformations at different temperatures (56° C. to 59° C.). […] Little difference between 56° C. and 57° C. sintering and unsintered fiber˜100% release. […] At 58° C. and 59° C. release is flipped: faster release at lower porosity. RhB is a relatively small molecule. Intermittent adsorption to surface of remaining porosity greatly slows release. […] No condition achieves˜100% release out to 12 days. […] At 58° C. and 59° C. release are still flipped but not as dramatic: faster release at lower porosity. Intermittent adsorption to surface of remaining porosity continues to slow release but increased molecular weight decreases net differences in diffusion. […] Much larger molecule needs fully open porosity for any release to occur. […] Diffusion through dense PCL is zero. […] FIGS. 11A-11B show relatively little porosity remains. This makes a substantial difference in diffusion and surface controlled release. Sequestration within the wall. FIGS. 12A-12D and 13A-13F show controlled salt confinement for controlled porosity using HEPES salt. […] Extraction was performed using deionized water at 37° C. for 24 hours plus gentle shaking. In most cases extraction was nearly complete. It is likely that Na^+ was retained and has measurable effects on mechanical properties.
compound,measurement,setting,value
"O=C1OC2(c3cc(I)c(O)c(I)c3Oc3c2cc(I)c(O)c3I)c2c(Cl)c(Cl)c(Cl)c(Cl)c21 [RB, Rose Bengal]",percent RB release of 200 μg,"any sintering condition, out to 12 days",< 100%
same,RB release profile,capsules sintered at 58° C. and 59° C.,linear release out to 12 days
same,ranking of release of model compounds,,RhB>RB>>BSA-FITC
"CCN(CC)c1ccc2c(-c3ccccc3C(=O)O)c3ccc(=[N+](CC)CC)cc-3oc2c1.[Cl-] [RhB, Rhodamine B]",percent RhB release of 200 μg,56° C. and 57° C. sintering and unsintered fiber,~100%
same,RhB release profile,capsules sintered at 58° C.,linear release out to 12 days
same,ranking of release of model compounds,,RhB>RB>>BSA-FITC
albumin-fluorescein isothiocyanate conjugate from bovine serum [BSA-FITC],ranking of release of model compounds,,RhB>RB>>BSA-FITC
same,Diffusion through dense PCL,dense PCL wall,zero
same,BSA-FITC release profile,"release of 200 μg versus time, needs fully open porosity",Release plateaus quickly
